{"source": "paper PMC13014258", "about": "(JACS Au, 2026)", "tested_on": "CTSB", "assay": "CTSB inhibitor study, CTSB channel fluorescence of the probes in cells", "type": "cell-based", "conditions": "HeLa cells, CA-074 500 nM 15 min, n = 30"}
{"smiles": "CCCNC(=O)[C@H]1O[C@@H]1C(=O)N[C@H](C(=O)N1CCC[C@H]1C(=O)O)[C@@H](C)CC", "note": "[CTSB inhibitor]", "values": [{"measurement": "CTSB (blue) channel intensities of MSS2 and MSS3 in inhibitor-treated cells at resting state", "setting": "then MSS2/MSS3 10 μM 5 min", "result": "significantly reduced"}, {"measurement": "CTSB (blue) channel intensities of MSS4 and MSS5 in inhibitor-treated cells at resting state", "setting": "then MSS4/MSS5 10 μM 5 min", "result": "significantly reduced"}]}
